Earlier results in patent US11439626B2 (Icahn School of Medicine at Mount Sinai, priority 2019, dated 2022).
Like-named read-outs stand apart in the source and are kept apart here.

Experiments:
[1] = not given; remark: listed apart in the source
[2] = for % Abs: 100 mg dose
[3] = system: patients with traumatic spinal cord injuries; settings: cervical injuries, 90 days post-injury

dose recovered in the urine (human, in vivo): 90% | dose recovered in the urine as glucuronides (human, in vivo): 85% | dose recovered in the urine as unchanged riluzole (human, in vivo): 2% | fecal excretion of administered dose (human, in vivo): 5% | accumulation (repeated twice daily dosing): approximately 2 fold | trough concentrations ([1]; 50 mg twice daily, non-smoking males, predicted profile (Bruno et al.)): ~0.03 µg/mL | Proportional error ([1]; error model parameter (SIGMA)): 0.0697 | V/F Inter-occasion variability ([1]; variability parameter (ETA)): 0.111 | Cmin ([2]; 100 mg BID treatment arm, reported by Le Liboux et al.): ~0.04 µg/mL | % Abs ([2]; Fasted (observed)): 100% | % Abs ([2]; Fed (observed)): 80%
SMILES: Nc1nc2ccc(OC(F)(F)F)cc2s1 [riluzole, 2-Amino-6-(trifluoromethoxy)benzothiazole]
motor outcomes [3]: improved motor outcomes
